Laboratory results from EPA's ToxValDB 9.5 (doi:10.2903/j.efsa.2018.5378).

Legend:
Cyprinus carpio = conditions: acute; duration: 96 hours; mortality
Pimephales promelas = conditions: chronic/long-term, duration: 33 days
Neomysis kadiakensis = conditions: chronic/long-term; duration: 28 days; reproduction
Apis mellifera = conditions: acute, duration: 48 hours, mortality
Daphnia magna = conditions: chronic/long-term; duration: 21 days; reproduction
Hypoaspis aculeifer = conditions: chronic/long-term; duration: 14 days; reproduction
Oncorhynchus mykiss = conditions: acute; duration: 96 hours; mortality
Tagia sp. = conditions: chronic/long-term; duration: 56 days; reproduction
[1] = chronic, duration: 2 years, histopathology: neoplastic

| Structure (SMILES) | LC50 (Cyprinus carpio) [mg/L] | LD50 (Colinus virginianus; acute, oral, mortality) [mg/kg-day] | NOEL (Colinus virginianus; reproduction developmental) [mg/kg-day] | NOEC (Pimephales promelas; development) [mg/L] | NOEC (Neomysis kadiakensis) [mg/L] | LD50 (Rattus norvegicus; acute, oral, mortality) [mg/kg-day] | NOAEL (Rattus norvegicus; [1]) [mg/kg-day] | NOAEL (Rattus norvegicus; reproduction developmental, no effects) [mg/kg-day] | LD50 (Apis mellifera; dermal) [µg/piece] | LD50 (Apis mellifera; oral, unspecified) [µg/piece] | NOEC (Daphnia magna) [mg/L] | NOEC (Pimephales promelas; other) [mg/L] | NOEC (Hypoaspis aculeifer) [mg/kg] | LC50 (Oncorhynchus mykiss) [mg/L] | NOEC (Tagia sp.) [mg/kg] |
| --- | --- | --- | --- | --- | --- | --- | --- | --- | --- | --- | --- | --- | --- | --- | --- |
| COc1c(Cl)ccc(-c2nc(C(=O)OCc3ccccc3)c(Cl)c(N)c2F)c1F [Florpyrauxifen-benzyl] | > 0.0414 | > 2250 | 87.2 | 0.037 | 0.0078 | > 5000 | 50 | 300 | > 100 | > 105 | – | – | – | – | – |
| COc1c(Cl)ccc(-c2nc(C(=O)O)c(Cl)c(N)c2F)c1F [Florpyrauxifen] | – | – | – | – | – | – | 50 | – | – | – | 25 | 29.8 | 25 | > 100 | 213 |
